Source: PubChem BioAssay AID2060886 (Molecular Pharmacology Branch, DTP, NCI, 2025)

Test system: 653999-131-R-J2-PDC complex spheroids, growth inhibition
Assay: Anticancer human tumor 653999-131-R-J2-PDC patient-derived lung adenocarcinoma cell line growth inhibition [RAS]
Settings: for IC50: curve of first compound; for viability, T/C: stronger effect = lower value
In short: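 Agents were tested in combination matrices in half-log decrements from a top concentration at or near clinical Cmax (10 microM if undetermined). Targets were multi-cell spheroids of tumour lines plus HUVEC and MSC stromal cells.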

[1] = second compound 0.000949 µM, first compound 0.0316 µM
[2] = second compound 0.000949 µM, first compound 0.1 µM
[3] = second compound 0.000949 µM, first compound 0.316 µM
[4] = second compound 0.000949 µM, first compound 1 µM
[5] = second compound 0.003 µM, first compound 0.0316 µM
[6] = second compound 0.003 µM, first compound 0.1 µM
[7] = second compound 0.003 µM, first compound 0.316 µM
[8] = second compound 0.003 µM, first compound 1 µM
[9] = second compound 0.00949 µM, first compound 0.0316 µM
[10] = second compound 0.00949 µM, first compound 0.1 µM
[11] = second compound 0.00949 µM, first compound 0.316 µM
[12] = second compound 0.00949 µM, first compound 1 µM
[13] = second compound 0.03 µM, first compound 0.0316 µM
[14] = second compound 0.03 µM, first compound 0.1 µM
[15] = second compound 0.03 µM, first compound 0.316 µM
[16] = second compound 0.03 µM, first compound 1 µM
[17] = second compound 0.0949 µM, first compound 0.0316 µM
[18] = second compound 0.0949 µM, first compound 0.1 µM
[19] = second compound 0.0949 µM, first compound 0.316 µM
[20] = second compound 0.0949 µM, first compound 1 µM
[21] = second compound 0.3 µM, first compound 0.0316 µM
[22] = second compound 0.3 µM, first compound 0.1 µM
[23] = second compound 0.3 µM, first compound 0.316 µM
[24] = second compound 0.3 µM, first compound 1 µM
[25] = second compound 0.000949 µM, first compound 3.16 µM
[26] = second compound 0.000949 µM, first compound 10 µM
[27] = second compound 0.003 µM, first compound 3.16 µM
[28] = second compound 0.003 µM, first compound 10 µM
[29] = second compound 0.00949 µM, first compound 3.16 µM
[30] = second compound 0.00949 µM, first compound 10 µM
[31] = second compound 0.03 µM, first compound 3.16 µM
[32] = second compound 0.03 µM, first compound 10 µM
[33] = second compound 0.0949 µM, first compound 3.16 µM
[34] = second compound 0.0949 µM, first compound 10 µM
[35] = second compound 0.3 µM, first compound 3.16 µM
[36] = second compound 0.3 µM, first compound 10 µM
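Note: spheroids exposed to the agents for seven days before the readout.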

With `C=CC(=O)Nc1cc(Nc2nccc(-c3cn(C)c4ccccc34)n2)c(OC)cc1N(C)CCN(C)C` + CCn1c(-c2cccnc2C(C)OC)c2c3cc(ccc31)N1CCOC(CC(NC(=O)C(C(C)C)N(C)C(=O)C3(F)CCN(C(=O)C#CC(C)(C)N(C)C)CC3)C(=O)N3CCCC(N3)C(=O)OCC(C)(C)C2)C1 as the molecule, how does the IC50 (second compound 0.000949 µM) read?
The IC50 was over 1000 nM.

What about the IC50 (second compound 0.003 µM) of the same molecule?
The IC50 was 318 nM.

What about the IC50 (second compound 0.00949 µM) of the same molecule?
Its IC50 is 562 nM.

What about the IC50 (second compound 0.03 µM) of the same molecule?
The IC50 was 450 nM.

What about the IC50 (second compound 0.0949 µM) of the same molecule?
The IC50 was 717 nM.

What about the IC50 (second compound 0.3 µM) of the same molecule?
The IC50 was 697 nM.

What about the viability, T/C (second compound 0.000949 µM, first compound 0.00316 µM) of the same molecule?
The viability, T/C was 86.2%.

And the viability, T/C (second compound 0.000949 µM, first compound 0.01 µM)?
The viability, T/C was 82.3%.

What about the viability, T/C [1] of the same molecule?
Its viability, T/C is 97.7%.

And the viability, T/C [2]?
The viability, T/C was 64.7%.

And the viability, T/C [3]?
The viability, T/C was 64.2%.

And the viability, T/C [4]?
The viability, T/C was 49.2%.

And the viability, T/C (second compound 0.003 µM, first compound 0.00316 µM)?
The viability, T/C was 90.1%.

And the viability, T/C (second compound 0.003 µM, first compound 0.01 µM)?
The viability, T/C was 95.8%.

And the viability, T/C [5]?
The viability, T/C was 86.3%.

And the viability, T/C [6]?
The viability, T/C was 67.1%.

What about the viability, T/C [7] of the same molecule?
Its viability, T/C is 52.5%.

And the viability, T/C [8]?
The viability, T/C was 37.8%.

What about the viability, T/C (second compound 0.00949 µM, first compound 0.00316 µM) of the same molecule?
Its viability, T/C is 80.5%.

And the viability, T/C (second compound 0.00949 µM, first compound 0.01 µM)?
Its viability, T/C is 84.8%.

And the viability, T/C [9]?
Its viability, T/C is 93.2%.

What about the viability, T/C [10] of the same molecule?
Its viability, T/C is 85.7%.

And the viability, T/C [11]?
The viability, T/C was 55%.

What about the viability, T/C [12] of the same molecule?
The viability, T/C was 45%.

What about the viability, T/C (second compound 0.03 µM, first compound 0.00316 µM) of the same molecule?
The viability, T/C was 87.1%.

And the viability, T/C (second compound 0.03 µM, first compound 0.01 µM)?
The viability, T/C was 97.6%.

What about the viability, T/C [13] of the same molecule?
Its viability, T/C is 84.2%.

And the viability, T/C [14]?
The viability, T/C was 82.5%.

What about the viability, T/C [15] of the same molecule?
Its viability, T/C is 52.6%.

And the viability, T/C [16]?
The viability, T/C was 43.6%.

And the viability, T/C (second compound 0.0949 µM, first compound 0.00316 µM)?
Its viability, T/C is 79.4%.

What about the viability, T/C (second compound 0.0949 µM, first compound 0.01 µM) of the same molecule?
The viability, T/C was 76.5%.

And the viability, T/C [17]?
Its viability, T/C is 115%.

And the viability, T/C [18]?
Its viability, T/C is 89.8%.

And the viability, T/C [19]?
Its viability, T/C is 59.6%.

What about the viability, T/C [20] of the same molecule?
The viability, T/C was 46.1%.

And the viability, T/C (second compound 0.3 µM, first compound 0.00316 µM)?
Its viability, T/C is 78.7%.

What about the viability, T/C (second compound 0.3 µM, first compound 0.01 µM) of the same molecule?
Its viability, T/C is 104%.

And the viability, T/C [21]?
The viability, T/C was 94.8%.

What about the viability, T/C [22] of the same molecule?
The viability, T/C was 94.1%.

What about the viability, T/C [23] of the same molecule?
Its viability, T/C is 61.7%.

And the viability, T/C [24]?
Its viability, T/C is 44.6%.

With `C[C@@H](NC(=O)c1ncnc(N)c1Cl)c1ncc(C(=O)Nc2cc(C(F)(F)F)c(Cl)cn2)s1` + CCn1c(-c2cccnc2C(C)OC)c2c3cc(ccc31)N1CCOC(CC(NC(=O)C(C(C)C)N(C)C(=O)C3(F)CCN(C(=O)C#CC(C)(C)N(C)C)CC3)C(=O)N3CCCC(N3)C(=O)OCC(C)(C)C2)C1 as the molecule, how does the IC50 (second compound 0.000949 µM) read?
Its IC50 is over 10000 nM.

What about the IC50 (second compound 0.003 µM) of the same molecule?
Its IC50 is over 10000 nM.

And the IC50 (second compound 0.00949 µM)?
Its IC50 is over 10000 nM.

What about the IC50 (second compound 0.03 µM) of the same molecule?
Its IC50 is over 10000 nM.

What about the IC50 (second compound 0.0949 µM) of the same molecule?
Its IC50 is over 10000 nM.

And the IC50 (second compound 0.3 µM)?
Its IC50 is over 10000 nM.

What about the viability, T/C [1] of the same molecule?
Its viability, T/C is 95.5%.

What about the viability, T/C [2] of the same molecule?
Its viability, T/C is 123%.

What about the viability, T/C [3] of the same molecule?
The viability, T/C was 95.5%.

And the viability, T/C [4]?
The viability, T/C was 101%.

What about the viability, T/C [25] of the same molecule?
The viability, T/C was 106%.

What about the viability, T/C [26] of the same molecule?
Its viability, T/C is 83.6%.

What about the viability, T/C [5] of the same molecule?
The viability, T/C was 105%.

And the viability, T/C [6]?
Its viability, T/C is 104%.

What about the viability, T/C [7] of the same molecule?
Its viability, T/C is 126%.

And the viability, T/C [8]?
The viability, T/C was 104%.

And the viability, T/C [27]?
The viability, T/C was 100%.

What about the viability, T/C [28] of the same molecule?
The viability, T/C was 73.7%.

What about the viability, T/C [9] of the same molecule?
Its viability, T/C is 113%.

What about the viability, T/C [10] of the same molecule?
Its viability, T/C is 115%.

And the viability, T/C [11]?
Its viability, T/C is 119%.

And the viability, T/C [12]?
Its viability, T/C is 112%.

What about the viability, T/C [29] of the same molecule?
Its viability, T/C is 108%.

And the viability, T/C [30]?
Its viability, T/C is 94.8%.

And the viability, T/C [13]?
Its viability, T/C is 111%.

What about the viability, T/C [14] of the same molecule?
The viability, T/C was 109%.

And the viability, T/C [15]?
Its viability, T/C is 107%.

And the viability, T/C [16]?
Its viability, T/C is 107%.

What about the viability, T/C [31] of the same molecule?
Its viability, T/C is 100%.

What about the viability, T/C [32] of the same molecule?
The viability, T/C was 95.3%.

And the viability, T/C [17]?
Its viability, T/C is 113%.

What about the viability, T/C [18] of the same molecule?
The viability, T/C was 97.3%.

And the viability, T/C [19]?
The viability, T/C was 121%.

And the viability, T/C [20]?
Its viability, T/C is 107%.

And the viability, T/C [33]?
The viability, T/C was 121%.

What about the viability, T/C [34] of the same molecule?
Its viability, T/C is 91.5%.

What about the viability, T/C [21] of the same molecule?
Its viability, T/C is 104%.

What about the viability, T/C [22] of the same molecule?
The viability, T/C was 98.9%.

And the viability, T/C [23]?
The viability, T/C was 93.4%.

What about the viability, T/C [24] of the same molecule?
The viability, T/C was 121%.

And the viability, T/C [35]?
Its viability, T/C is 101%.

And the viability, T/C [36]?
The viability, T/C was 85.9%.

What does the source list for `CC(Nc1ccc2c(c1)OCCn1cc(N3C(=O)OCC3C(F)F)nc1-2)C(N)=O` (stereo unspecified) + CCn1c(-c2cccnc2C(C)OC)c2c3cc(ccc31)N1CCOC(CC(NC(=O)C(C(C)C)N(C)C(=O)C3(F)CCN(C(=O)C#CC(C)(C)N(C)C)CC3)C(=O)N3CCCC(N3)C(=O)OCC(C)(C)C2)C1?
IC50 (second compound 0.000949 µM): 772 nM; IC50 (second compound 0.003 µM): 502 nM; IC50 (second compound 0.00949 µM): 544 nM; IC50 (second compound 0.03 µM): 473 nM; IC50 (second compound 0.0949 µM): 510 nM; IC50 (second compound 0.3 µM): 442 nM; viability, T/C [1]: 85.2%; viability, T/C [2]: 79.2%; viability, T/C [3]: 66.4%; viability, T/C [4]: 44.6%; viability, T/C [25]: 29.4%; viability, T/C [26]: 20.1%; viability, T/C [5]: 88.3%; viability, T/C [6]: 70.8%; viability, T/C [7]: 59.3%; viability, T/C [8]: 38%; viability, T/C [27]: 30.1%; viability, T/C [28]: 20.3%; viability, T/C [9]: 99.2%; viability, T/C [10]: 71%; viability, T/C [11]: 60.3%; viability, T/C [12]: 43.7%; viability, T/C [29]: 26.8%; viability, T/C [30]: 21.9%; viability, T/C [13]: 83.3%; viability, T/C [14]: 69.6%; viability, T/C [15]: 56.8%; viability, T/C [16]: 37%; viability, T/C [31]: 33.2%; viability, T/C [32]: 20.5%; viability, T/C [17]: 85.8%; viability, T/C [18]: 73.7%; viability, T/C [19]: 57.2%; viability, T/C [20]: 40.1%; viability, T/C [33]: 29.3%; viability, T/C [34]: 23.9%; viability, T/C [21]: 92%; viability, T/C [22]: 67.5%; viability, T/C [23]: 53.5%; viability, T/C [24]: 41.2%; viability, T/C [35]: 29.4%; viability, T/C [36]: 18.3%
